Measurements published in ChEMBL document CHEMBL1150468, “Sch 53823 and Sch 53825, novel fungal metabolites with phospholipase D inhibitory activity” (Bioorg Med Chem Lett, 1996).

Assay: In vitro inhibitory activity in the fMLP-stimulated phospholipase (PLD) assay

Structure (SMILES)	IC50 [µM]
CC(=O)Oc1c(Cl)ccc2c1[C@@H](OC(C)=O)[C@H]1O[C@H]1C21Oc2cccc3cccc(c23)O1	> 50
Oc1c(Cl)ccc2c1[C@@H](O)[C@H]1O[C@H]1C21Oc2cccc3cccc(c23)O1	19
Oc1cccc2c1[C@@H](O)[C@H]1O[C@H]1C21Oc2cccc3cccc(c23)O1	24
CC(=O)Oc1cccc2c1[C@@H](OC(C)=O)[C@H]1O[C@H]1C21Oc2cccc3cccc(c23)O1	17
